{"source": "patent US20200069650A1", "about": "“DEXMEDETOMIDINE OR MEDETOMIDINE FOR USE IN TREATING SEPARATION ANXIETY IN DOGS” (Orion Corporation, priority 2016, published 2020)", "system": "separation anxiety in dogs", "conditions": "Example 6: mixed breed dog, behavioural modification supported by fluoxetine", "method": "Oromucosal dexmedetomidine gel was then administered to buccal/gingival mucosa of the dog with a syringe using a dose of 125 μg/m^2 of dexmedetomidine hydrochloride about 15 minutes prior to unscheduled departures such as shopping and visiting friends.", "data": [{"smiles": "CNCCC(Oc1ccc(C(F)(F)F)cc1)c1ccccc1", "note": "(centres unmarked) [fluoxetine]", "values": [{"measurement": "effect of conventional therapy on regular daily work departures", "value": "enabled trouble free leaving dog at home during regular daily work departures"}, {"measurement": "signs of separation anxiety at unscheduled departures under conventional therapy", "setting": "before gel", "value": "still showed signs of sepration anxiety to unscheduled departures"}]}]}
